Results from patent US9844578B2, “Accelerated healing of eye injuries by angiotensin peptides” (UNIVERSITY OF SOUTHERN CALIFORNIA, priority 2013, dated 2017).
Residues, ends and D or L forms follow the SMILES beside them.

System: full-thickness corneal incision
Settings: rabbit, in vivo
Procedure: Animal Preparation and Procedure:
Before each procedure, the rabbits were anesthetized with a subcutaneous injection of a mixture of ketamine hydrochloride (50-80 mg/kg) and xylazine hydrochloride (5-9 mg/kg). The animal was prepared for sterile surgery conducted under aseptic conditions. Periorbital area was cleaned using 5% povidone iodine solution and a drop of this solution was instilled into the fornix and a speculum was used to hold the eyelids open. Using corneal blade (Keratome 3.2 mm), a clear corneal full-thickness tunnel was created in the same manner as in human phacoemulsification surgery. To prevent the globe collapse after corneal tunnel creation, a small amount of viscoelastic was injected in the anterior chamber through a paracentesis. Gentamicin 25 mg, and dexamethasone 2 mg were injected subconjunctivally. Post-operatively, analgesia was administered. Animals allocated to the treatment group were treated with 1 drop (approximately 50 μl) of the active drug (0.03% or 0.3% Nle3 A(1-7) in 2% hydroxyethyl cellulose in 0.05 M phosphate buffer, pH 6.5) under investigation instilled into the conjunctival sac daily (using a dropper throughout the follow-up period. On the other hand, animals allocated to the control group will be treated with vehicle (2% hydroxyethyl cellulose in 0.05 M phosphate buffer, pH 6.5) eyedrops daily throughout the follow-up period.
These ocular follow-up examinations were done while the animal was under anesthesia as described above. Anterior segment imaging includes red free picture and anterior segment fluorescein imaging using Spectralis (Heildelberg Engineering, Germany) where sequential photos are taken after one drop of 10% fluorescein (Akorn Abit Springs, La.) was instilled in the conjunctival sac and a slight pressure was applied to the globe. This is more commonly known as Seidel's test in which fluorescein strip containing 10% fluorescein was applied topically to the affected area and was examined with a cobalt blue filter. At this point, the fluorescein appears green in color. Any changes in color or surface of the fluorescence area indicate the presence of conical leakage. This imaging data were used to assess the degree of corneal wound healing as well as extent of wound leak. Measurement of the intraocular pressure was performed using Tonopen-AVIVA (TPA, Reichert Inc.).
The injury was also imaged using involved using a Heidelberg Retina Tomograph (HRT) instrument. This is a confocal scanning laser ophthalmoscope which was converted into a confocal corneal microscope using an additional microscope lens which attached to the standard lens. This additional lens enabled the HRT to image cells and cell layers within the cornea to allow an in-life phase assessment of the healing and structure of the cornea to allow detailed views of the conical structure and pathology.

Complications: None | Fundus Exam & Fluorescein angiography: Normal | IOP: Normal | change in intraocular pressure: no change | fundus examination and fluorescein angiography: normal
Structure (SMILES): CCCC[C@H](NC(=O)[C@H](CCCNC(=N)N)NC(=O)[C@@H](N)CC(=O)O)C(=O)N[C@@H](Cc1ccc(O)cc1)C(=O)N[C@H](C(=O)N[C@@H](Cc1c[nH]cn1)C(=O)N1CCC[C@H]1C(=O)O)[C@@H](C)CC [Nle3-A(1-7), Asp-Arg-Nle-Tyr-Ile-His-Pro] (HELM PEPTIDE1{D.R.[Nle].Y.I.H.P}$$$$V2.0)
